Measured values from US11096985B2, “Antimicrobial peptides, their variants and uses” (priority 2015, dated 2021).
Where a SMILES comes first, the peptide text is derived from it. [ ]: non-standard residue; d: D form.

Assays:
[1] = test system: clinical strains of Enterobacter cloacae; assay: MIC, clinical strains of Enterobacter cloacae; format: cell-based; design: unit: μg/ml; details: microdilution, Muller Hinton broth-cation adjusted, 0.02% BSA, 0.2% acetic acid
How it was run: (§1)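 MIC = lowest peptide concentration showing no visual growth after 20–24 h at 37° C. Range 0.125–128 μg/ml; bacteria at 5.0×10^5 cfu/ml in MH broth, polypropylene microdilution format; yeasts in potato dextrose broth.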

[2] = test system: clinical strains of C. parapsilosis; assay: MIC, clinical yeast strains, C. parapsilosis; format: cell-based, Candida parapsilosis; design: unit: μg/ml
How it was run: as §1

[3] = test system: clinical strains of Proteus mirabilis; assay: MIC, clinical strains of Proteus mirabilis; format: cell-based; design: unit: µg/mL; details: microdilution, Muller Hinton broth-cation adjusted, 0.02% BSA, 0.2% acetic acid
How it was run: as §1

[4] = test system: clinical strains of Staphylococcus aureus; assay: MIC, clinical strains of S. aureus; format: cell-based; design: unit: μg/ml; details: microdilution, Muller Hinton broth-cation adjusted, 0.02% BSA, 0.2% acetic acid
How it was run: as §1

[5] = test system: clinical strains of Acinetobacter baumannii; assay: MIC, clinical strains of Acinetobacter baumannii; format: cell-based; details: microdilution, Muller Hinton broth-cation adjusted, 0.02% BSA, 0.2% acetic acid
How it was run: as §1

[6] = test system: clinical strains of Pseudomonas aeruginosa; assay: MIC, clinical strains of P. aeruginosa; format: cell-based; design: unit: μg/ml; details: microdilution, Muller Hinton broth-cation adjusted, 0.02% BSA, 0.2% acetic acid
How it was run: as §1

[7] = test system: clinical strains of Streptococcus pneumoniae; assay: MIC, clinical strains of Streptococcus pneumoniae; format: cell-based; design: unit: µg/mL; details: microdilution, Muller Hinton broth-cation adjusted, 0.02% BSA, 0.2% acetic acid
How it was run: as §1

[8] = test system: clinical strains of C. glabrata; assay: MIC, clinical yeast strains, C. glabrata; format: cell-based, Candida glabrata; design: unit: μg/ml
How it was run: as §1

[9] = test system: clinical strains of Escherichia coli; assay: MIC, clinical strains of E. coli; format: cell-based; design: unit: μg/ml; details: microdilution, Muller Hinton broth-cation adjusted, 0.02% BSA, 0.2% acetic acid
How it was run: as §1

[10] = test system: clinical strains of Candida albicans; assay: MIC, clinical yeast strains, Candida albicans; format: cell-based; design: unit: μg/ml
How it was run: as §1

[11] = test system: clinical strains of C. quillermondiae; assay: MIC, clinical yeast strains, C. quillermondiae; format: cell-based; details: C. quillermondiae clinical yeast strain 1
How it was run: as §1

[12] = test system: clinical strains of Acinetobacter johnsonii; format: cell-based; details: Acinetobacter johnsonii clinical strain 1; microdilution, Muller Hinton broth-cation adjusted, 0.02% BSA, 0.2% acetic acid
How it was run: as §1

[13] = test system: clinical strains of Serratia marcescens; assay: MIC, clinical strains of Serratia marcescens; format: cell-based; design: unit: µg/mL; details: microdilution, Muller Hinton broth-cation adjusted, 0.02% BSA, 0.2% acetic acid
How it was run: as §1

[14] = test system: clinical strains of Klebsiella pneumoniae; assay: MIC, clinical strains of K. pneumoniae; format: cell-based; design: unit: μg/ml; details: microdilution, Muller Hinton broth-cation adjusted, 0.02% BSA, 0.2% acetic acid
How it was run: as §1

CC(C)C[C@@H](NC(=O)[C@H](N)CCCNC(=N)N)C(=O)N[C@H](CCCCN)C(=O)N[C@H](Cc1c[nH]c2ccccc12)C(=O)N[C@H](Cc1ccccc1)C(=O)N[C@H](CC(C)C)C(=O)N[C@H](CC(C)C)C(=O)N[C@H](Cc1ccccc1)C(=O)N[C@H](CCCNC(=N)N)C(=O)N[C@H](CCCCN)C(=O)N[C@H](CCCNC(=N)N)C(=O)O [Chain308D] (H-[dR][dL][dK][dW][dF][dL][dL][dF][dR][dK][dR]-OH)
Minimum inhibitory concentration ([1]; Enterobacter cloacae clinical strain 1): 2
Minimum inhibitory concentration ([1]; Enterobacter cloacae clinical strain 2): 2
Minimum inhibitory concentration ([1]; Enterobacter cloacae clinical strain 3): 2
Minimum inhibitory concentration ([1]; Enterobacter cloacae clinical strain 4): 2
Minimum inhibitory concentration ([1]; Enterobacter cloacae clinical strain 5): 2
Minimum inhibitory concentration ([2]; C. parapsilosis clinical yeast strain 1): 8
Minimum inhibitory concentration ([2]; C. parapsilosis clinical yeast strain 2): 8
Minimum inhibitory concentration ([2]; C. parapsilosis clinical yeast strain 3): 8
Minimum inhibitory concentration ([2]; C. parapsilosis clinical yeast strain 4): 4
Minimum inhibitory concentration ([3]; Proteus mirabilis clinical strain 1): >128
Minimum inhibitory concentration ([3]; Proteus mirabilis clinical strain 2): 32
Minimum inhibitory concentration ([3]; Proteus mirabilis clinical strain 3): 128
Minimum inhibitory concentration ([3]; Proteus mirabilis clinical strain 4): >128
Minimum inhibitory concentration ([3]; Proteus mirabilis clinical strain 5): >128
Minimum inhibitory concentration ([4]; Staphylococcus aureus clinical strain 1): 1
Minimum inhibitory concentration ([4]; Staphylococcus aureus clinical strain 2): 2
Minimum inhibitory concentration ([4]; Staphylococcus aureus clinical strain 3): 1
Minimum inhibitory concentration ([4]; Staphylococcus aureus clinical strain 4): 2
Minimum inhibitory concentration ([4]; Staphylococcus aureus clinical strain 5): 2
Minimum inhibitory concentration ([5]; Acinetobacter baumannii clinical strain 1): 4
Minimum inhibitory concentration ([5]; Acinetobacter baumannii clinical strain 2): 4
Minimum inhibitory concentration ([5]; Acinetobacter baumannii clinical strain 3): 4
Minimum inhibitory concentration ([5]; Acinetobacter baumannii clinical strain 4): 2
Minimum inhibitory concentration ([5]; Acinetobacter baumannii clinical strain 5): 2
Minimum inhibitory concentration ([6]; Pseudomonas aeruginosa clinical strain 1): 8
Minimum inhibitory concentration ([6]; Pseudomonas aeruginosa clinical strain 2): 8
Minimum inhibitory concentration ([6]; Pseudomonas aeruginosa clinical strain 3): 4
Minimum inhibitory concentration ([6]; Pseudomonas aeruginosa clinical strain 4): 4
Minimum inhibitory concentration ([6]; Pseudomonas aeruginosa clinical strain 5): 4
Minimum inhibitory concentration ([7]; Streptococcus pneumoniae clinical strain 1): 8
Minimum inhibitory concentration ([7]; Streptococcus pneumoniae clinical strain 2): 4
Minimum inhibitory concentration ([7]; Streptococcus pneumoniae clinical strain 3): 8
Minimum inhibitory concentration ([7]; Streptococcus pneumoniae clinical strain 4): 2
Minimum inhibitory concentration ([7]; Streptococcus pneumoniae clinical strain 5): 4
Minimum inhibitory concentration ([8]; C. glabrata clinical yeast strain 1): 16
Minimum inhibitory concentration ([8]; C. glabrata clinical yeast strain 2): 16
Minimum inhibitory concentration ([8]; C. glabrata clinical yeast strain 3): 16
Minimum inhibitory concentration ([8]; C. glabrata clinical yeast strain 4): 16
Minimum inhibitory concentration ([9]; Escherichia coli clinical strain 1): 1
Minimum inhibitory concentration ([9]; Escherichia coli clinical strain 2): 0.5
Minimum inhibitory concentration ([9]; Escherichia coli clinical strain 3): 1
Minimum inhibitory concentration ([9]; Escherichia coli clinical strain 4): 1
Minimum inhibitory concentration ([9]; Escherichia coli clinical strain 5): 1
Minimum inhibitory concentration ([10]; Candida albicans clinical yeast strain 1): 16
Minimum inhibitory concentration ([10]; Candida albicans clinical yeast strain 2): 16
Minimum inhibitory concentration ([10]; Candida albicans clinical yeast strain 3): 16
Minimum inhibitory concentration ([10]; Candida albicans clinical yeast strain 4): 16
Minimum inhibitory concentration ([10]; Candida albicans clinical yeast strain 5): 16
Minimum inhibitory concentration [11]: 4
Minimum inhibitory concentration [12]: 4
Minimum inhibitory concentration ([13]; Serratia marcescens clinical strain 1): 128
Minimum inhibitory concentration ([13]; Serratia marcescens clinical strain 2): 128
Minimum inhibitory concentration ([13]; Serratia marcescens clinical strain 3): 64
Minimum inhibitory concentration ([13]; Serratia marcescens clinical strain 4): >128
Minimum inhibitory concentration ([13]; Serratia marcescens clinical strain 5): 128
Minimum inhibitory concentration ([14]; Klebsiella pneumoniae clinical strain 1): 4
Minimum inhibitory concentration ([14]; Klebsiella pneumoniae clinical strain 2): 4
Minimum inhibitory concentration ([14]; Klebsiella pneumoniae clinical strain 3): 4
Minimum inhibitory concentration ([14]; Klebsiella pneumoniae clinical strain 4): 4
Minimum inhibitory concentration ([14]; Klebsiella pneumoniae clinical strain 5): 4
